For 3 compounds, EC50, CLint scaled and hHep t1/2 results are on record in US12410163B2, “Compounds as GLP-IR agonists” (Terns Pharmaceuticals, Inc., priority 2022, dated 2025).

Structures are written as SMILES. Where only a bound is given, the exact number is not on record here.

One data set addresses T1, human GLP-1R receptor (Homo sapiens, UniProt P43220).
T1 construct: expressed in transfected cells
Put plainly: GLP-1R low expression cell assay (cAMP TR-FRET, CHO-K1_hGLP-1Rlow_clone10). It counts as cell-based. Conditions: CHO-K1_hGLP-1Rlow_clone10 cells, percent activation relative to control GLP-1 peptide. As to the method: Stable cell lines expressing high and low GLP-1R surface expression are generated in CHO-K1 cells transfected (Fugene 6) with a puromycin selectable DNA plasmid encoding human GLP-1R receptor (accession number: NM_002062.5) under control of an EF1A promoter. Transfected cells are seeded into 24-well plates (9,000 cells/well) containing complete medium and incubated in a humidified incubator at 37° C. with 5% carbon dioxide. After overnight incubation, medium is replaced with complete medium supplemented with puromycin (6 μg/mL) and refreshed every 2-3 days to select for stably transfected cells. Individual pools of selected cells are expanded prior to analysis for responsiveness to GLP-1 control peptide using a TR-FRET assay to detect cAMP (LANCE Ultra cAMP Assay, Perkin Elmer). Briefly, cells are collected in Versene solution, plated in 384-well plates (1,000 cells/well) and combined with serially diluted GLP-1R control peptide (10 nL) using an acoustic dispenser (ECHO). Plates are incubated for 30 minutes at 25° C. prior to the addition of EU-cAMP tracer (5 μL) and Ulight-anti-cAMP (5 μL) reagents to each well, followed by 15 minutes incubation at 25° C. TR-FRET signal is detected using an EnVision Multimode Plate Reader (excitation=320 nm; emission=615 and 655 nm). Dose-response curves are used to generate EC50 values as a measure of responsiveness to the GLP-1R control peptide. Selected cell lines are monitored for responsiveness over multiple passages to ensure stability. […] Briefly, GLP-1R expression is analyzed by flow cytometry using a fluorescein-labeled Exendin-4 peptide fluorescent probe (FLEX). Cells are harvested in Versene solution and washed 3-times with PBS+0.5% BSA before incubation with FLEX reagent (10 μM) for 2 hours at room temperature. After incubation, cells are washed 3-times in PBS+0.5% BSA before final resuspension in PBS prior to analysis by flow cytometry to measure FLEX mean fluorescence intensity (MFI) as a measure of GLP-1R expression on the cell surface.
For compound testing in the CHO-K1_hGLP-1Rlow_clone10 cell lines, cells are seeded in 384-well plates (1,000 cells/well). Test compounds are serially diluted in DMSO (10-point, 3-fold dilution), added to wells using an ECHO dispenser (10 nL/well) and plates are centrifuged for 1 min and agitated for 2 min at room temperature prior to 30-minute incubation at 25° C. After incubation, Eu-cAMP (5 μL) and Ulight-anti-cAMP (5 μL) reagents are added to each well, followed by centrifugation for 1 minute, agitation for 2 minutes at room temperature, and final incubation of the plates at 25° C. for 15 minutes. Plates are read using an EnVision microplate reader (excitation=320 nm; emission=615 and 655 nm). Dose-response curves are generated from duplicate wells based on percent activation calculated relative to a control GLP-1 peptide agonist that was run in parallel. EC50 values are determined by fitting percent activation as a function of compound concentration using the Hill equation (XLfit).
Stable cell lines expressing high and low GLP-1R surface expression were generated in CHO-K1 cells transfected (Fugene 6) with a puromycin selectable DNA plasmid encoding human GLP-1R receptor (accession number: NM_002062.5) under control of an EF1A promoter. Transfected cells were seeded into 24-well plates (9,000 cells/well) containing complete medium and incubated in a humidified incubator at 37° C. with 5% carbon dioxide. After overnight incubation, medium was replaced with complete medium supplemented with puromycin (6 μg/mL) and refreshed every 2-3 days to select for stably transfected cells. Individual pools of selected cells were expanded prior to analysis for responsiveness to GLP-1 control peptide using a TR-FRET assay to detect cAMP (LANCE Ultra cAMP Assay, Perkin Elmer).

Data set [1] is described as follows: Metabolic stability in hepatocytes. The format is in vitro ADME. The conditions noted are these: cryopreserved human hepatocytes (suspension), 1×10^6 cells/mL, intrinsic clearance, read-out: hHep CLint. As to the method: (§1) Test compounds are incubated in human hepatocytes and stability is assessed from the substrate […] approach. Test compounds are dissolved in dimethyl sulfoxide (DMSO) to create a 10 mM Stock, and then further diluted to create a 1000× Working Stock of 1 mM with DMSO in 96-well plates for test compounds and the positive control (midazolam). Vials containing cryopreserved hepatocytes are removed from the liquid nitrogen tank and immediately immersed in a 37° C. water bath. The vials are shaken gently until the contents had thawed and were then immediately emptied into 48 mL of pre-warmed HT Medium in a 50 mL conical tube. Cells remaining in the vial are resuspended with 1.0 mL of pre-warmed HT Medium and added to the conical tube. The tube is capped and then gently inverted several times to resuspend the hepatocytes. The cell suspension is centrifuged at 50×g at room temperature for 5 minutes and the supernatant discarded. The cell pellet is loosened by gently swirling the centrifuge tube and is re-suspended in 4 mL of warm Dulbecco's Modified Eagle medium (DMEM). Cell density is determined by a cell counter by Nexcelom, and DMEM medium is added to obtain a target density of 1×10^6 cells/mL. The assay is carried out in 96-well microtiter plates. Test Compounds are incubated at 1 μM with 1×10^6 cells/mL hepatocytes in DMEM for 0, 30, 60, 120 and 240 minutes. The incubation is carried out with gentle shaking at 37° C. under a humid atmosphere of 95% air/5% CO2. The volume of the incubation mixture is 37 μL with a final 0.1% DMSO. At each of the time points, the incubation is stopped by adding 150 μL quenching solution (100% acetonitrile, 0.1% formic acid containing bucetin as an internal standard for positive ESI mode). Subsequently, the mixtures are vortexed for 20 min and centrifuged at 4,000 RPM at 10° C. The supernatant (80 μL) is transferred to a clean 96-well plate and analyzed by LC-MS/MS. Midazolam at 1 μM with a final 0.1% DMSO is included as a positive control to verify assay performance. The percent parent remaining, intrinsic and predicted hepatic clearance and t1/2 are calculated. All samples are analyzed by LC-MS/MS using an AB Sciex API 4000 instrument, coupled to a Shimadzu LC-20AD LC Pump system. Separation is achieved using a Waters Atlantis T3 dC18 reverse phase HPLC column (20 mm×2.1 mm) at a flow rate of 0.5 mL/min. The mobile phase consisted of 0.1% formic acid in water (solvent A) and 0.1% formic acid in 100% acetonitrile (solvent B). Elution conditions are detailed below.
(§2) The ion optics of each test compound are optimized for their declustering potential (DP), […] (CE), collision-cell exit potential (CXP) and used in a selected ion monitoring experiment in the positive ion mode. The peak area ratio of each test compound to internal standard is then evaluated for stability. The extent of metabolism is calculated based on the disappearance of the test compound, compared to its initial concentration. The initial rates of clearance of the test compound are calculated using the linear regression plot of semi-log % remaining of the compound versus time. The elimination rate constant (k) of the linear regression plot is then used to determine t1/2 and the intrinsic clearance (CLint) using the following formula, where Chepatocyte (million cells/mL) is the cell density of the incubation: k=−slope t1/2=0.693/k CLint=k/Chepatocyte
(§3) Test compounds were incubated in human hepatocytes and stability was assessed from the substrate […] approach. Test compounds were dissolved in dimethyl sulfoxide (DMSO) to create a 10 mM Stock, and then further diluted to create a 1000× Working Stock of 1 mM with DMSO in 96-well plates for test compounds and the positive control (midazolam). Vials containing cryopreserved hepatocytes were removed from the liquid nitrogen tank and immediately immersed in a 37° C. water bath. […]

For a further data set, the system named is human hepatocytes. Put plainly: Metabolic stability in hepatocytes. It counts as in vitro ADME. Conditions: 1 μM, 1×10^6 cells/mL, 0-240 min. As to the method: as §1, §2, §3

T1 sequence (P43220 24-463): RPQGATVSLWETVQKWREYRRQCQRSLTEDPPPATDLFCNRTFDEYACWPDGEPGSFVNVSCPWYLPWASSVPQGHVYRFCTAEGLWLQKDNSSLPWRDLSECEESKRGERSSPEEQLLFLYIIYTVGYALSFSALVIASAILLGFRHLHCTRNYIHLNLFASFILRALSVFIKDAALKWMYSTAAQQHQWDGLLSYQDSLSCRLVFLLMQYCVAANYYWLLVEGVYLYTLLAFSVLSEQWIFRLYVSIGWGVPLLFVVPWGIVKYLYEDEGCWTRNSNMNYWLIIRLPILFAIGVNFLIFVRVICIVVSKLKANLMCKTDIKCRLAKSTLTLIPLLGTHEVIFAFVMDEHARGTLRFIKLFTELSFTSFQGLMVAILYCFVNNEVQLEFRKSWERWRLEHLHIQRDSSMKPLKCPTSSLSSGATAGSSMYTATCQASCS

As to `N#Cc1ccc(COc2cccc(N3CCN(Cc4nc5ccc(C(=O)O)cc5n4C[C@@H]4CCO4)[C@H]4CC43)n2)c(F)c1` (single isomer, unassigned) [Compound 42], the EC50 at human GLP-1R receptor lay within 50 to 100 nM. In data set [1], the CLint scaled at 1 μM stood at 5.01 mL/min/kg. The compound further registered a hHep t1/2 with human hepatocytes above 8 h.
The corresponding values for `N#Cc1ccc(COc2ccnc(N3CCN(Cc4nc5ccc(C(=O)O)cc5n4Cc4cncs4)[C@H]4C[C@H]43)n2)c(F)c1` [Compound 19, 2-((5-(4-((4-Cyano-2-fluorobenzyl)oxy)pyrimidin-2-yl)-2,5-diazabicyclo[4.1.0]heptan-2-yl)methyl)-1-(thiazol-5-ylmethyl)-1H-benzo[d]imidazole-6-carboxylic Acid] are above 100 nM, 5.01 mL/min/kg and above 8 h.
For the compound `CCn1nncc1Cn1c(CN2CCN(c3cccc(OCc4ccc(C#N)cc4F)n3)C3C[C@@H]32)nc2ccc(C(=O)O)cc21` (some centres unmarked) [Compound 44, 2-((5-(6-((4-Cyano-2-fluorobenzyl)oxy)pyridin-2-yl)-2,5-diazabicyclo[4.1.0]heptan-2-yl)methyl)-1-((1-ethyl-1H-1,2,3-triazol-5-yl)methyl)-1H-benzo[d]imidazole-6-carboxylic Acid], the CLint scaled at 1 μM in data set [1] came out at 5.01 mL/min/kg. This compound also came in with a hHep t1/2 in the data set with human hepatocytes above 8 h.
